From article PMC5940854, “Nitrothiophene carboxamides, a novel narrow spectrum antibacterial series: Mechanism of action and Efficacy” (Scientific Reports, 2018)
Residues, ends and D or L forms follow the SMILES beside them. *: point of attachment. βNA = c1ccc2cc(N*)ccc2c1

Legend:
[1] = biological target: T1, AcrB efflux pump in E. coli BW25113 (Escherichia coli, UniProt P31224); experiment: Nile red efflux assay (whole-cell competition); assay type: cell-based
T1 construct: endogenous in cells; host or cells: E. coli BW25113 (wild type)
T1 sequence (P0AE06 25-397): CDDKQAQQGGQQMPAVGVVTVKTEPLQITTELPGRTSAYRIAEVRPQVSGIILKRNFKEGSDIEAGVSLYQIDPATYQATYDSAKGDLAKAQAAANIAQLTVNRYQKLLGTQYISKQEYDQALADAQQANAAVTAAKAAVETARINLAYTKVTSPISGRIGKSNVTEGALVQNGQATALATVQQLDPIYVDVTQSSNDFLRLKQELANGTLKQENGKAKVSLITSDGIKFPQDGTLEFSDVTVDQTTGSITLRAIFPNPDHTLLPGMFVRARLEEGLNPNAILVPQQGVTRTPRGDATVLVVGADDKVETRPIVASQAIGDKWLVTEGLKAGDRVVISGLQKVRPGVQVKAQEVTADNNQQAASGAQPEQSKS
T1 sequence (P31224 whole entry): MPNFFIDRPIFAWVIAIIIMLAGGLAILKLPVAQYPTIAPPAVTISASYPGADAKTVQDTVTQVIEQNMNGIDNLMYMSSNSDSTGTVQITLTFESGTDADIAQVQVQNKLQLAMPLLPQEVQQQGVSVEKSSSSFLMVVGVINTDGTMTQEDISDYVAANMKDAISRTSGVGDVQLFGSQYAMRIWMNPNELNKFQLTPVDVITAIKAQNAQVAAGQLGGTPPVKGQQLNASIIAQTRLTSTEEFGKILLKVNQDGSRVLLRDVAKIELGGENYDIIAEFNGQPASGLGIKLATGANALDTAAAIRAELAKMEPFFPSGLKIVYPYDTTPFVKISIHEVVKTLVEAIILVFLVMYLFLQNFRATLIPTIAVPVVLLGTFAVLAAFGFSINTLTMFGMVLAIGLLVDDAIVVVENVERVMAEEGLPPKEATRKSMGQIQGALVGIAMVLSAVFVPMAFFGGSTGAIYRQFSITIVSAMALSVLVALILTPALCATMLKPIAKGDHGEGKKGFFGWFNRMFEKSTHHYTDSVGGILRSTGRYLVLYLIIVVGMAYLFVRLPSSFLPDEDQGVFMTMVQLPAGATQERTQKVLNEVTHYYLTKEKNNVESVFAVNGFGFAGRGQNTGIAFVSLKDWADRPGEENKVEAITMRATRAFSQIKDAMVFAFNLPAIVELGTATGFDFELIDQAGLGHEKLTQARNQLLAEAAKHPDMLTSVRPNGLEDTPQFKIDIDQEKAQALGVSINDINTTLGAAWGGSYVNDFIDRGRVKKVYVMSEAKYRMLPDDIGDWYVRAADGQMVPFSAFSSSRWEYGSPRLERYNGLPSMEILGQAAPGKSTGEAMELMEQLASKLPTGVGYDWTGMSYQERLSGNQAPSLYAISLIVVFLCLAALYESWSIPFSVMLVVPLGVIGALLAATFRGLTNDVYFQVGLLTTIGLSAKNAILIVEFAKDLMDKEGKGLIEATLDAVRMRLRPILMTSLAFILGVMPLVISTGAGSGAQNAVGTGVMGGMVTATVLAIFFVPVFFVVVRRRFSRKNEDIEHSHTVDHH
T1 sequence (P02930 23-493, further chain): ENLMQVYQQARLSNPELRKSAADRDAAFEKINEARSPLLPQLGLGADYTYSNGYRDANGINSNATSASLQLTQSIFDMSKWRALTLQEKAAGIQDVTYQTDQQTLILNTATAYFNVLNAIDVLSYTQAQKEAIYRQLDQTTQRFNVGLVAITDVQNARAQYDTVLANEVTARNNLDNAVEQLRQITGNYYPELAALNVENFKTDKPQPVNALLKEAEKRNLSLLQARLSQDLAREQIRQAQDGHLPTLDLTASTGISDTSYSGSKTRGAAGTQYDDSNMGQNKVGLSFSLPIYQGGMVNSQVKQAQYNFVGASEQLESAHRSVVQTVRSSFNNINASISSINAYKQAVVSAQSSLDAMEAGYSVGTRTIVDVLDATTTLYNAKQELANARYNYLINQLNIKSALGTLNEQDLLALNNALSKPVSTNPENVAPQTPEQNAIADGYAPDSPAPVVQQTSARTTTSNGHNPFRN
Protocol: The Nile red assay is adopted from Bohnert et al.[18]. An overnight culture of E. coli strain BW25113 is harvested and is resuspended in 20 mM potassium phosphate buffer (pH 7.0) containing 1 mM MgCl2 (PPB). The cells are adjusted to an A660 of 1.0 in PPB and aliquoted into glass tubes (2 ml each). Carbonylcyanide-m-chlorophenylhydrazone (CCCP; a protonophore that uncouples the electron transport chain and thus inhibits AcrB mediated efflux) is added to a final concentration of 10 µM (5 mM stock solution in 50% DMSO) and incubated for 15 minutes before adding the potential competitor at desired concentrations. Nile red is then added (stock solution of 5 mM in 10% dimethyl formamide-90% ethanol [vol/vol]) to a final concentration of 5 µM. The cell suspension is incubated at room temperature on a shaker for 3 hours. The cells are harvested and resuspended in 2 ml PPB in the presence of the competitor. The cell suspension is aliquoted in a fluorimeter cuvette, to which, 100 µl of 1 M Glucose is added to activate the electron transport chain. The rate of efflux is measured by Tefflux50, it is the time taken for 50% of Nile red to be effluxed out in presence of the compounds. The fluorescence is measured (Excitation 552 nm, Emission 636 nm) for 200 seconds.

AcrB = biological target: T2, AcrB (Escherichia coli, UniProt P31224); experiment: Thermal shift assay with CPM dye; set-up: species or system E. coli; details: AcrB vs apo-protein; > 1°C implies binding
T2 construct: Full length acrB gene was amplified from E. coli; BW25113; His-tag (C); made in house; host or cells: E. coli C43(DE3), plasmid pET21a
T2 sequence (P31224 whole entry): as the sequence (P31224 whole entry) above
Protocol: AcrB overexpression protocol is adopted from Du. et al.[31]. Full length acrB gene was amplified from E. coli. BW25113 using Forward Primer 5′-[…]-3′ Reverse Primer 5′-[…]-3′ and cloned into the plasmid pET21a. The resultant plasmid that would express AcrB with a C-terminal His-tag is transformed into E. coli strain C43(DE3). The cells are induced on reaching A600 = 0.6 and transferred to 18 °C. The culture is harvested by centrifugation and re-suspended in Buffer A (100 mM Sodium Phosphate, 100 mM NaCl, 10 mM Imidazole, pH = 7.4, 100 µg/ml protease inhibitor cocktail from Roche and 5 U/ml DNase I and 5 mg/ml lysozyme). The cells are lysed at 15000 psi using Emulsiflex and centrifuged at 8000 g for removing cell debris. The membrane is isolated by centrifuging the resultant supernatant at 125000 g (see Coomassie stained SDS-PAGE of the purified protein Figure S9). Membrane solubilisation is done using Buffer A and 1.5% DDM (n-Dodecyl-β-D-Maltoside). Ni-NTA chromatography is used to purify the His-tagged protein and eluted in Buffer A with 300 mM Imidazole and 1.5% DDM.
The assay is performed according to protocols established elsewhere. CPM (N- [4-(7-diethylamino-4-methyl-3-coumarinyl) phenyl] maleimide) is a thiol specific fluorochrome (Excitation 387 nm, Emission 463 nm) and is non-fluorescent in an unbound state. The proteins, on thermal unfolding exposes cysteines allowing the CPM to bind and fluoresce. […]. The thermal denaturation is performed in a fluorimeter that is heated from 25 to 90 °C at a ramp rate of 1 °C/min. The Tm is calculated by analysing the melting profiles using Boltzmann Sigmoid function (GraphPad Prism) and ∆Tm is calculated by measuring the difference between the Tm of inhibitor bound protein and the apo-protein.

E. coli BW25113 = experiment: Neutropenic thigh infection, E. coli BW25113; assay type: in vivo, BALB/c mice; details: Study TI-2014-008, BW25113, 100mg/kg per oral
E. coli ∆acrB JW0451-2 = experiment: Neutropenic thigh infection, E. coli ∆acrB; assay type: in vivo, BALB/c mice

NC(N)=NCCC[C@H](NC(=O)[C@@H](N)Cc1ccccc1)C(=O)Nc1ccc2ccccc2c1 [PAβN, Phenylalanine-Arginine Beta-Naphthylamide, reference compound] (H-Phe-Arg-βNA)
Tefflux50 ([1]; 1µM compound, time for 50% of Nile red to be effluxed, read for 200 seconds): 200 s | Tefflux50 ([1]; 9µM compound): 200 s | Tefflux50 ([1]; 27µM compound): 200 s | Tefflux50 ([1]; 81µM compound): 200 s | Tefflux50 ([1]; 100µM compound): 200 s | Tefflux50 ([1]; 200µM compound): 200 s | Tefflux50 ([1]; 400µM compound): 200 s | ∆Tm (AcrB): 3.84 °C

O=C(O)c1cn(C2CC2)c2cc(N3CCNCC3)c(F)cc2c1=O [ciprofloxacin, reference compound]
Log10CFU Mean Diff. vs. Untreated Controls (E. coli BW25113): 3.212 Log10CFU | Log10CFU Mean Diff. vs. Untreated Controls (E. coli ∆acrB JW0451-2; Study TI-2014-007, ∆acrB JW0451-2, 100mg/kg per oral, 6 hours post treatment): 3.477 Log10CFU | Log10CFU Mean Diff. vs. Untreated Controls (E. coli ∆acrB JW0451-2; Study TI-2014-008, ∆acrB JW0451-2, 100mg/kg per oral): 3.098 Log10CFU
